# Test results as given in US20070213359A1 (ACADIA Pharmaceuticals Inc., priority 2005, published 2007).
# Target: Ghrelin receptor (Homo sapiens, UniProt Q92847)
# Test: Receptor Selection and Amplification Technology (R-SAT) assay
# Format: cell-based
# Set-up: expressed in transfected cells; host or cells: NIH3T3
# Settings: for IC50: '—' not defined (nd used separately), read-out: RSAT pIC50 (converted); for Emax: read-out: RSAT Eff(%)
# Ghrelin receptor, sequence (Q92847 whole entry): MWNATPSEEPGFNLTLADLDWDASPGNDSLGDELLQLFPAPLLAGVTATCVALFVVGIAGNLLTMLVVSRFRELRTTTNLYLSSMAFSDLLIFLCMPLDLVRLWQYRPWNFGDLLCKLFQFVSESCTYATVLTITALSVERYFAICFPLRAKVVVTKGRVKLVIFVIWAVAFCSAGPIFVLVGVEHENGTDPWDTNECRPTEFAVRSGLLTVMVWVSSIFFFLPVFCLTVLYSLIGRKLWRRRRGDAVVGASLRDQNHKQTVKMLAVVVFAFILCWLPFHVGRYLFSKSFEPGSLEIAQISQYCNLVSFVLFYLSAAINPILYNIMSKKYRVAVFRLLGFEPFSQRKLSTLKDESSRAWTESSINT
SMILES,IC50,Emax
COc1cccc2c(C(=O)Cc3ccccc3)cn(CCCN3CCN(Cc4ccc(Cl)cc4Cl)CC3)c12,2 nM,76%
COc1cccc2c(C(=O)C3CC3)cn(CCCN3C4CCC3CC(CCc3ccccc3)C4)c12 (stereo not drawn),2.51 nM,109%
CC(=O)c1cn(CCCN2CCCN(Cc3ccc(F)cc3)CC2)c2c(C)cccc12,2.51 nM,95%
COc1cccc2c(C(=O)NCC(C)C)cn(CCCN3C4CCC3CC(CC(=O)c3ccc(Cl)cc3)C4)c12 (stereo not drawn),126 nM,128%
COc1cccc2c(C(=O)NCc3cccc(Cl)c3)cn(CCCN3CCC(Oc4ccccc4Cl)CC3)c12,126 nM,125%
COc1ccccc1C1CCN(CCCn2cc(C(=O)NCc3cccc(C)c3)c3cccc(OC)c32)CC1,126 nM,127%
COc1cccc2c(C(=O)NCc3cccc(C)c3)cn(CCCN3CCC4(CC3)CC(=O)c3ccccc3O4)c12,158 nM,63%
CC(=O)c1cn(CCCNC2Cc3ccccc3C2)c2c(C)cccc12,158 nM,70%
COc1cccc2c(C(=O)NCC(C)C)cn(CCCNCCOc3ccccc3)c12,158 nM,118%
COc1cccc2c(C(=O)C3CC3)cn(CCCN3C4CCC3CC(Oc3ccccc3Cl)C4)c12 (stereo not drawn),158 nM,130%
CC(=O)c1cn(CCCN2CCN(c3nc(-c4cccnc4)no3)CC2)c2c(C)cccc12,200 nM,110%
CCCCC[C@H]1C[C@H]2CC[C@@H](C1)N2CCCn1cc(C(=O)c2ccccc2)c2cccc(OC)c21,200 nM,91%
CCCCC[C@H]1C[C@H]2CC[C@@H](C1)N2CCCn1cc(C(=O)C2CC2)c2cccc(OC)c21,200 nM,101%
COc1cccc2c(C(=O)c3ccccc3)cn(CCCN3CCC4(CC3)CC(=O)c3ccccc3O4)c12,200 nM,60%
COc1ccc2c(C(C)=O)cn(CCCN3CCC(c4ccccc4OC)CC3)c2c1,251 nM,72%
COc1cccc2c(C(=O)c3ccccc3)cn(CCCN3C4CCC3CC(CC(=O)c3ccc(Cl)cc3)C4)c12 (stereo not drawn),251 nM,143%
COc1cccc2c(C(=O)C3CC3)cn(CCCN3CCC(CCOc4ccc(Cl)cc4)CC3)c12,316 nM,89%
COc1cccc2c(C(=O)NCc3cccc(Cl)c3)cn(CCCN3CCC(Oc4ccc(F)cc4)CC3)c12,316 nM,106%
CCCCC[C@H]1C[C@H]2CC[C@@H](C1)N2CCCn1cc(C(C)=O)c2cccc(Cl)c21,316 nM,72%
COc1cccc2c(C(=O)c3ccccc3)cn(CCCNC3Cc4ccccc4C3)c12,316 nM,93%
COc1cccc2c(C(=O)NCc3cccc(Cl)c3)cn(CCCN3C4CCC3CC(CC(=O)c3ccc(Cl)cc3)C4)c12 (stereo not drawn),316 nM,76%
COc1cccc2c(C(=O)Cc3ccccc3)cn(CCCN3CCCC(Oc4ccc(Cl)cc4)C3)c12 (stereo not drawn),316 nM,86%
CC(C)CC(=O)c1cn(CCCN2CCN(C(C)c3ccccc3)CC2)c2ccccc12 (stereo not drawn),398 nM,106%
CC(=O)c1cn(CCCCN2CCC(Oc3ccccc3Cl)CC2)c2ccccc12,398 nM,46%
COc1cccc2c(C(=O)C3CC3)cn(CCCN3CCC(C(=O)c4ccccc4)CC3)c12,398 nM,100%
COc1cccc2c(C(=O)C3CC3)cn(CCCN3CCC(Oc4ccc(Cl)cc4)CC3)c12,501 nM,90%
CC(=O)c1c(C)n(CCCN2CCCN(CCc3ccccc3)CC2)c2c(Br)cccc12,501 nM,42%
CC(=O)c1cn(CCCN2C3CCC2CC(Oc2ccc(Cl)cc2)C3)c2ccccc12 (stereo not drawn),501 nM,108%
COc1cccc2c(C(=O)c3ccccc3)cn(CCCN3CCC(C(=O)c4ccccc4)CC3)c12,501 nM,102%
COc1cccc2c(C(=O)C3CC3)cn(CCCN3CCC(c4nc5ccccc5s4)CC3)c12,501 nM,88%
